Five compounds from ChEMBL document CHEMBL3585294, “LAT Transport Inhibitors from Pittosporum venulosum Identified by NMR Fingerprint Analysis” (J Nat Prod, 2015) can be followed below.

The structures appear in SMILES notation.

The assay is described as follows: Inhibition of LAT in human LNCAP cells assessed as inhibition of [3H]-L-leucine transport by liquid scintillation counting analysis. The class given is cell-based.
Take `NC1(C(=O)O)CC2CCC1C2` (stereo not given): the IC50 stood at 4060 µM.
The same measure for `CC(=O)O[C@H]1[C@H](OC(C)(C)[C@H]2CC=C(C)CC2)O[C@H](C)[C@H](O)[C@@H]1OC(=O)C=C(C)C`: 8.12 µM; for `C/C=C(/C)C(=O)O[C@H]1[C@@H](O)[C@@H](C)O[C@@H](OC(C)(C)[C@H]2CC=C(C)CC2)[C@@H]1OC(C)=O`: 29.2 µM.
The same measure for `CC[C@H](C)C(=O)O[C@H]1[C@@H](O)[C@@H](C)O[C@@H](OC(C)(C)[C@H]2CC=C(C)CC2)[C@@H]1OC(C)=O`: 11.5 µM; for `CC[C@H](C)C(=O)O[C@@H]1[C@H](O)[C@@H](OC(C)=O)[C@H](OC(C)(C)[C@H]2CC=C(C)CC2)O[C@@H]1C`: 39.7 µM.
